# Measurements as given in ChEMBL document CHEMBL3994671, “Similarity- and Substructure-Based Development of β2-Adrenergic Receptor Ligands Based on Unusual Scaffolds” (ACS Med Chem Lett, 2017).
# Active and inactive are the calls of the source. The calls are words filed in the database; no cut-off is given here.
# Legend:
# [1] = organism: Homo sapiens; assay: Selectivity ratio of Kd for human beta1-AR expressed in CHOK1 cells to Kd for human beta2-AR expressed in CHOK1 cells; type: cell-based
# [2] = target: T1, Beta-2 adrenergic receptor (Homo sapiens, UniProt P07550); assay: Displacement of [3H]DHA from beta2-AR (unknown origin) expressed in baculovirus infected sf9 cell membranes after 1 hr by scintillation counting method
# Target sequence in this assay (P07550 whole entry): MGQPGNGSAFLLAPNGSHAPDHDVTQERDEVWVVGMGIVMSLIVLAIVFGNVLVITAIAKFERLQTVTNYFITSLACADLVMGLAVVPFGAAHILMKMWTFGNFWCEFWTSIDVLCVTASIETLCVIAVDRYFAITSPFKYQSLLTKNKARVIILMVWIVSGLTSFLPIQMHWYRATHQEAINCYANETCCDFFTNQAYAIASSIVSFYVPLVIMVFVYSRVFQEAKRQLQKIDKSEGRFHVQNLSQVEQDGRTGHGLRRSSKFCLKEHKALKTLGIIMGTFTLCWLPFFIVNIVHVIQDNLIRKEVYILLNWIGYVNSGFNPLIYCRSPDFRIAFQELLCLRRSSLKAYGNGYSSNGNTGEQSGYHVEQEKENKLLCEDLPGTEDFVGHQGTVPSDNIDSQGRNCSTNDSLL
# [3] = target: T1, Beta-2 adrenergic receptor; assay: Displacement of [3H](-)CGP12177 from human beta2-AR expressed in CHOK1 cells after 2 hrs by TopCount microscintillation counting method; type: cell-based
# [4] = target: T2, Beta-1 adrenergic receptor (Homo sapiens, UniProt P08588); assay: Displacement of [3H](-)CGP12177 from human beta1-AR expressed in CHOK1 cells after 2 hrs by TopCount microscintillation counting method; type: cell-based
# Target sequence in this assay (P08588 whole entry): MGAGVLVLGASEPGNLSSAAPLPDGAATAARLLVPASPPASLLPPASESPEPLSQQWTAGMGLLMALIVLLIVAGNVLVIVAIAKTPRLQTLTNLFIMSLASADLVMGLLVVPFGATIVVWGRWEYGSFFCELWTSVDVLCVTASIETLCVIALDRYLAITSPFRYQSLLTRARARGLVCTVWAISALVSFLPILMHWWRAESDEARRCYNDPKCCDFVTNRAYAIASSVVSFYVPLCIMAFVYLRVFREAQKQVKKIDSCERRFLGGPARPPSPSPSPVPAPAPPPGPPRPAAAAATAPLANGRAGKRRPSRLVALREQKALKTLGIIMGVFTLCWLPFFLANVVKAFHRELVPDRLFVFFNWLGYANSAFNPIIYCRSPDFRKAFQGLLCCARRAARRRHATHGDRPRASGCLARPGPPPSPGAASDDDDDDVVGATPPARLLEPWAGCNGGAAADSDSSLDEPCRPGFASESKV
# [5] = target: T1, Beta-2 adrenergic receptor; assay: Antagonist activity at human beta2-AR expressed in CHOK1 cells assessed as inhibition of cimaterol-induced CRE-SPAP production at 100 uM after 5 hrs; type: functional, cell-based
# Target sequence in this assay (P07550 whole entry, looked up): as the sequence (P07550 whole entry) above
# [6] = target: T2, Beta-1 adrenergic receptor; assay: Antagonist activity at human beta1-AR expressed in CHOK1 cells assessed as inhibition of cimaterol-induced CRE-SPAP production at 100 uM after 5 hrs; type: functional, cell-based
# Target sequence in this assay (P08588 whole entry, looked up): as the sequence (P08588 whole entry) above
# [7] = target: T2, Beta-1 adrenergic receptor; assay: Displacement of [3H](-)CGP12177 from human beta1-AR expressed in CHOK1 cells at 20 to 100 uM after 2 hrs by TopCount microscintillation counting method relative to control; type: cell-based
# Target sequence in this assay (P08588 whole entry, looked up): as the sequence (P08588 whole entry) above
# [8] = target: T1, Beta-2 adrenergic receptor; assay: Neutral antagonist activity at human beta2-AR expressed in CHOK1 cells assessed as inhibition of cimaterol-induced CRE-SPAP production at 100 uM after 5 hrs; type: functional, cell-based
# Target sequence in this assay (P07550 whole entry, looked up): as the sequence (P07550 whole entry) above
# [9] = target: T2, Beta-1 adrenergic receptor; assay: Neutral antagonist activity at human beta1-AR expressed in CHOK1 cells assessed as inhibition of cimaterol-induced CRE-SPAP production at 100 uM after 5 hrs; type: functional, cell-based
# Target sequence in this assay (P08588 whole entry, looked up): as the sequence (P08588 whole entry) above
# [10] = target: T1, Beta-2 adrenergic receptor; assay: Antagonist activity at human beta2-AR expressed in CHOK1 cells assessed as inhibition of cimaterol-induced CRE-SPAP production at 20 uM after 5 hrs; type: functional, cell-based
# Target sequence in this assay (P07550 whole entry, looked up): as the sequence (P07550 whole entry) above
# [11] = target: T2, Beta-1 adrenergic receptor; assay: Antagonist activity at human beta1-AR expressed in CHOK1 cells assessed as inhibition of cimaterol-induced CRE-SPAP production at 20 uM after 5 hrs; type: functional, cell-based
# Target sequence in this assay (P08588 whole entry, looked up): as the sequence (P08588 whole entry) above
# [12] = target: T1, Beta-2 adrenergic receptor; assay: Antagonist activity at human beta2-AR expressed in CHOK1 cells assessed as inhibition of cimaterol-induced CRE-SPAP production at 2 uM after 5 hrs; type: functional, cell-based
# Target sequence in this assay (P07550 whole entry, looked up): as the sequence (P07550 whole entry) above
# [13] = target: T2, Beta-1 adrenergic receptor; assay: Antagonist activity at human beta1-AR expressed in CHOK1 cells assessed as inhibition of cimaterol-induced CRE-SPAP production at 2 uM after 5 hrs; type: functional, cell-based
# Target sequence in this assay (P08588 whole entry, looked up): as the sequence (P08588 whole entry) above
# [14] = target: T2, Beta-1 adrenergic receptor; assay: Partial agonist activity at human beta1-AR expressed in CHOK1 cells assessed as CRE-SPAP production after 5 hrs; type: functional, cell-based
# Target sequence in this assay (P08588 whole entry, looked up): as the sequence (P08588 whole entry) above
# [15] = target: T2, Beta-1 adrenergic receptor; assay: Partial agonist activity at human beta1-AR expressed in CHOK1 cells assessed as CRE-SPAP production after 5 hrs in presence of beta1-AR antagonist CGP20712A; type: functional, cell-based
# [16] = target: T1, Beta-2 adrenergic receptor; assay: Partial agonist activity at human beta2-AR expressed in CHOK1 cells assessed as inhibition of cimaterol-induced CRE-SPAP production after 5 hrs; type: functional, cell-based
# Target sequence in this assay (P07550 whole entry): as the sequence (P07550 whole entry) above
# [17] = target: T2, Beta-1 adrenergic receptor; assay: Partial agonist activity at human beta1-AR expressed in CHOK1 cells assessed as inhibition of cimaterol-induced CRE-SPAP production after 5 hrs; type: functional, cell-based
SMILES,Selectivity ratio [1],Kd ([3]; read-out: pKd (converted)) [µM],Kd [4] [µM],further results
Cc1cc(O)c(CN(C)C)c2c1C(=O)/C(=C/c1ccccc1)O2,1.9,,,
CC(O)CNCCOc1ccccc1-c1ccccc1 (centres undefined),,,,Ki [2]: 0.009 to 3.2 µM
C=CCNCCOc1ccccc1-c1ccccc1,10.5,2.63,27.5,inhibition [5]: Active; inhibition [6]: Active
CCN1C(=Cc2sc3ccccc3[n+]2C)C=Cc2cccc(C)c21,,,,Ki [2]: 0.009 to 3.2 µM
Cc1n(-c2ccccc2)c2ccc(Cl)cc2[n+]1CCO,,,,inhibition [3]: Active; inhibition [5]: inactive; inhibition [6]: inactive
C[n+]1c(/C=C/Nc2ccccc2)sc2ccccc21,6.6,38.9,,
CC(C)(C)NCC(O)COc1ccccc1-c1ccccc1 (centres undefined) [BERLAFENONE],,,,Kd ([3]; read-out: Kd): 3.5e-05 µM
CCNCCOc1ccccc1-c1ccccc1,,,,Ki [2]: 0.009 to 3.2 µM
COc1cccc(/C=C2\Oc3c(CN4CCCC4)c(O)cc(C)c3C2=O)c1,6.5,5.5,35.5,inhibition [5]: Active; inhibition [6]: Active
CN(C)CCOc1ccc2ccccc2c1C=O,4.2,23.4,,
C[n+]1c(C2=C(N)N(c3ccccc3)CC2=O)sc2ccccc21,,,,inhibition [3]: inactive
COc1cccc(/C=C2\Oc3c(CN4CCN(C)CC4)c(O)cc(C)c3C2=O)c1,1.5,17.4,26.3,
Cc1cc(O)c(CN2CCCC2)c2c1C(=O)/C(=C/c1cc3ccccc3o1)O2,2.6,,,
COc1cccc(/C=C2\Oc3c(CN(C)C)c(O)cc(C)c3C2=O)c1,2,21.9,44.7,
CCCCN(C)Cc1c(O)cc(C)c2c1O/C(=C\c1cc3cc(Br)ccc3o1)C2=O,,,,inhibition [7]: < 50%
Cc1cc(O)c(CN2CCCC2)c2c1C(=O)/C(=C\c1ccco1)O2,,,,Ki [2]: 0.009 to 3.2 µM
CN(C)CCOCCOc1ccccc1-c1ccccc1,12,3.8,45.7,inhibition [8]: Active; inhibition [9]: Active
COc1ccc(C(=O)C[n+]2c(C)n(C(F)F)c3ccccc32)cc1,,,,inhibition [3]: Active; inhibition [5]: inactive; inhibition [6]: inactive
COCCNCCOc1ccccc1-c1ccccc1,,,,Ki [2]: 0.009 to 3.2 µM
CCOC(=O)c1cc(/C=C/c2sc3ccccc3[n+]2C)c2sc3ccccc3n12,3.5,0.891,3.09,inhibition [10]: Active; inhibition [11]: Active; inhibition [12]: Active; inhibition [13]: inactive
C[n+]1c(/C=C/c2ccccc2Cl)sc2ccccc21,2.8,4.9,13.8,
CCOC(=O)C1Oc2cccc(OCC(O)CNC(C)C)c2C1C (centres undefined),,,,Ki [2]: 0.009 to 3.2 µM
CC(C)(C)NC[C@@H](O)COc1ccccc1-c1ccccc1,27.5,3.55e-05,0.000977,Activity [14]: Active; Activity [15]: inactive; Kd [16]: 0.0182 nM; inhibition [17]: Active
